Measurements published in a melting point compilation (Tetko et al.).

Compound | melting point
FC(Cl)(Cl)c1ccccc1 | -26.8 °C
CC12COC(=O)CC1CCC1C2CCC2(C)C1CCC2(C)O (stereo not drawn) | 236 °C
CC(=O)C1CCC2(C)C(CC(=O)C3C4CCC(=O)C4(C)CCC32)C1 (stereo not drawn) | 237 °C
CC(C)(C)[Si](C)(C)Cl | 88 °C
CC(C)(C)c1ccc(S(=O)(=O)NCCBr)cc1 | 76 to 78 °C
CNC(=O)c1ccccc1N | 75 to 76 °C
CC(=O)c1ccc(Oc2ccc(Cl)cc2)cc1Cl | 54 to 56 °C
OCC1OC(Oc2ccc3cc(Br)ccc3c2)C(O)C(O)C1O (stereo not drawn) | 218 to 220 °C
CCOC(=O)c1ccc(OC)c(OC)c1Cl | 50 to 52 °C
NNc1ccc(Br)cc1 | 108 °C
CNc1ccccc1C(N)=O | 161 to 163 °C
CC(C)=NNc1ccccc1 | 42 °C
CN1CCC(N(Cc2cccs2)c2ccccc2)CC1 | 95 °C
O=[N+]([O-])C(CO)(CO)CO | 214 °C
COc1cccc(O)c1C=O | 71 °C
Cc1cc(N(C)C)ccc1N=Nc1ccccc1 | 68 °C
Cn1nc(-c2ccc(Cl)cc2)cc1N | 150 to 152 °C
CC(C)c1ccc(Br)cc1 | -12 °C
CCCCc1cc(C)ccc1O | 19 °C
CC1Cc2ccccc2CC1C (stereo not drawn) | -5 °C
C=CCn1c2c(c3cc(OC)ccc31)CCc1cc(OC)ccc1-2 | 92 to 93 °C
Sc1ccccc1S | 28.5 °C
CC(CCC(=O)O)C1CCC2C3C(=O)CC4CCCCC4(C)C3CCC12C (stereo not drawn) | 145 °C
Cn1ncc(C=O)c1N | 161 to 163 °C
CC(C(=O)O)C(=O)O | 129 to 136 °C
Cc1cc2c(C#N)c3sc4ccccc4n3c(=O)c2c(C)n1 | 287 °C

Compound | melting point
OC1OC2(CCCCC2)Cc2ccccc21 (stereo not drawn) | 89 °C
CCOC(=O)C(C(C)=O)C(C)C(C(C)=O)C(=O)OC1CC(C)CCC1C(C)C (stereo not drawn) | 155 °C
Cc1ccc(I)c([N+](=O)[O-])c1 | 52 to 54 °C
COC(=O)c1sc(SC)c(S(=O)(=O)C(C)C)c1N | 151 to 155 °C
O=P(c1ccc(Cl)cc1)(c1ccc(Cl)cc1)c1ccc(Cl)cc1 | 176 to 178 °C
COc1ccc(C(N)=S)cc1 | 148 to 152 °C
COc1cc2ccc(=O)oc2c(O)c1O | 231 °C
CCCCC(C)C(C)C (stereo not drawn) | -116 °C
CC(C)(C)OC(=O)NC1(C(=O)O)CCCC1 | 133 °C
Nc1ccc(C(O)(C(F)(F)F)C(F)(F)F)cc1 | 150 °C
Cc1nc2ccc(Br)cn2c(=O)c1C(=O)c1ccccc1 | 245 to 247 °C
CC1CCC(C)(CO)C1(C)C (stereo not drawn) | 94 °C
O=C=Nc1cccc2c(N=C=O)cccc12 | 130 °C
ClCc1nnc(-c2ccc(Cl)cc2)o1 | 81 to 85 °C
CCCCCCC(=O)OCCCCC | -50 °C
Cc1ccc(C2CC(c3ccc4ccccc4c3)=NN2c2ccccc2)cc1 (stereo not drawn) | 168 °C
Cc1cc(Cl)ccc1OC(C)C(=O)Nc1ccc2nc(SCc3ccccc3)sc2c1 (stereo not drawn) | 168 °C
COC(=O)[C@@H]1[C@H](c2ccccc2)C(C#N)=C(C(SC)SC)[C@@]1(O)c1ccccc1 | 164 to 165 °C
CCc1cccc(N)c1 | -8 °C
Oc1ccc2cc[nH]c2c1 | 124 to 130 °C
O=C1OC2(c3ccccc31)c1cc(Br)c(O)c(Br)c1Oc1c2cc(Br)c(O)c1Br | 295 °C
O=C(O)c1cc(Cl)c(C(=O)O)cc1Cl | 306 °C
C=Cc1ccc(I)cc1 | 44 °C
Ic1ccc(I)nc1 | 155 °C
CC1=NN(CN2CCCCC2)C(=O)/C1=N\Nc1ccc(Cl)cc1Cl | 122 to 124 °C
CCCCC(=O)OC1(C(=O)CO)CCC2C3CCC4=CC(=O)C=CC4(C)C3C(O)CC21C (stereo not drawn) | 212 °C

Compound | melting point
CN(c1c(F)c(F)c(-c2c(F)c(F)c(F)c(F)c2F)c(F)c1F)N(O)O | 140 °C
CC(C)(C)[Si](C)(C)N1C(=O)C[C@@H]1C(=O)O | 137 to 141 °C
Clc1ccc2nccnc2c1 | 64 °C
O=S(=O)(O)CCCNC1CCCCC1 | 324 °C
OCCc1ccc2ccccc2n1 | 103 °C
Fc1cccc(-n2cc[nH]c2=S)c1 | 162 to 164 °C
O=CC(C=O)c1ccc(C(=O)O)cc1[N+](=O)[O-] | 199 to 205 °C
O=C1OC2(c3ccc(O)cc3Oc3cc(O)ccc32)c2ccc(N=C=S)cc21 | 360 °C
O=C1NC(=S)NC(=O)C1=Cc1ccc(Br)o1 | 215 °C
OCC1CCN(c2ncnc3ccsc23)CC1 | 126 to 128 °C
CCCCCCCCCCS | -26 °C
O=C(O)[C@H]1NCC[C@@H]1O | 235 °C
CN(C)c1cccc2c(S(=O)(=O)F)cccc12 | 52 °C
N#C/C(=N\Nc1cccc(F)c1)c1nc2ccccc2s1 | 196 °C
NS(=O)(=O)c1ccc(C(=O)O)cc1 | 266 to 268 °C
COC(=O)c1ccc(C(=O)OC)c(N)c1 | 132 to 134 °C
Cc1nc(Cl)c2c(C)c(C)sc2n1 | 115 to 116 °C
O=c1[nH]nc(-c2ccccc2)c2ccccc12 | 240 °C
Cc1nc(-c2ccc(C(F)(F)F)cc2)sc1C(=O)CBr | 82 to 84 °C
O=C(O)Cc1cc(O)c(CC(=O)O)cc1O | 234 to 236 °C
COC(=O)c1cnc(SC)n1C | 53 to 55 °C
O=c1[nH]c(=O)n(-c2cccc(C(F)(F)F)c2)c2c1CCCC2 | 252 to 255 °C
CCOP(=O)(NC(C)C)Oc1ccc(SC)c(C)c1 (stereo not drawn) | 49 °C
CN(C)CCn1cnc2c1c(=O)n(C)c(=O)n2C | 95 °C
CC(C)Nc1ccc(Cl)cc1[N+](=O)[O-] | 72 to 74 °C
Nc1cc(Cl)c(Cl)c(Cl)c1 | 99 °C

Compound | melting point
COc1ccc(-c2ccc(S(=O)(=O)NCC(=O)O)cc2)cc1 | 186 °C
CN(C)c1ccc2cc3ccc(N(C)C)cc3nc2c1 | 165 °C
Cc1ccc(/C=C2\CN(S(=O)(=O)c3ccc(C)cc3)c3ccccc3N2S(=O)(=O)c2ccc(C)cc2)cc1 | 155 °C
Nc1nc2ccc(OC(F)(F)F)cc2s1 | 119 °C
O=[N+]([O-])c1ccc(OC2OC(CO)C(O)C(O)C2O)cc1 (stereo not drawn) | 211 °C
Cc1nccn1-c1ccc(C#N)cc1 | 138 to 141 °C
CCOC(=O)c1ccccc1N=C=O | 29 °C
Clc1cc(Cl)c(Cl)c(Br)c1 | 59 °C
Cn1c(SCC(=O)O)nnc1-c1ccc2ncccc2c1 | 238 to 239 °C
CCC(N)(CO)CO | 37.5 °C
S=c1[nH]ccn1-c1cccc(Cl)c1 | 161 to 163 °C
CC(C)(Oc1ccc(Cl)cc1)C(=O)OCCOC(=O)c1cccnc1 | 100 °C
O=C(O)CSc1nnc(S)s1 | 168 to 169 °C
CC=Cc1cccc(OC)c1O | 81 °C
CC1CCC(C(C)C)C(OC(=O)CC#N)C1 (stereo not drawn) | 84 °C
Brc1ccc2oc3ccccc3c2c1 | 110 °C
O=[N+]([O-])c1cc(Cl)cnc1Cl | 38 to 42 °C
CCOC(=O)C1=C(N)Oc2ccc3ccccc3c2[C@H]1c1ccc(C)cc1 | 201 °C
O=Cc1ccc2ncccc2c1 | 74 to 75 °C
COC(=O)c1ccc(I)c(C)c1 | 61 °C
Cc1cc(Cl)ccc1Oc1ncccc1[N+](=O)[O-] | 89 to 91 °C
CC(C)c1cc(C(=O)O)c(O)c(C(C)C)c1 | 117 °C
CCC=Cc1ccccc1 | -43.1 °C
O=[N+]([O-])c1cnc(Br)s1 | 88 °C
COc1cc(OC(C)=O)c2c(=O)c(OC(C)=O)c(-c3ccc(OCc4ccccc4)c(OC(C)=O)c3)oc2c1 | 182 to 192 °C
O=C(Nc1ccc(-c2ccc(NC(=O)c3ccccc3)cc2NC(=O)c2ccccc2)c(NC(=O)c2ccccc2)c1)c1ccccc1 | 279 °C

Compound | melting point
CC(=O)c1cc(Br)c(O)c(Br)c1 | 174 to 183 °C
O=C1CCc2ccccc2O1 | 25 °C
O=C(Nc1ccccc1)c1ccccc1[N+](=O)[O-] | 154 °C
COc1ccc(Br)cc1CC(NC(=O)OC(C)(C)C)C(=O)O (stereo not drawn) | 132 °C
O=C(NCO)NCO | 126 °C
CC=Cc1ccc(OC)c(OC)c1 | 18 °C
CC(=O)Oc1cn(C(C)=O)c2ccc(Br)c(Cl)c12 | 166 °C
Cc1nc(C(F)(F)F)c(C(=O)O)cc1-c1nc(-c2ccccc2)cs1 | 188 to 190 °C
O=C(OCCc1cc([N+](=O)[O-])c(CCOC(=O)c2ccccc2)cc1[N+](=O)[O-])c1ccccc1 | 157 to 158 °C
CC(=O)Nc1cc(NC(C)=O)c(OCCO)cc1OCCO | 206 °C
CC(C)(C)NCC(O)COc1ccccc1C1CCCC1 (stereo not drawn) | 68 °C
COc1ccc2[nH]cc(CCNC(C)=O)c2c1 | 117 °C
OC(c1ccc(F)cc1)(c1cncnc1)c1ccccc1Cl (stereo not drawn) | 126 °C
COC(=O)c1cccc(Cl)c1Cl | 33 to 38 °C
O=C(O)CNc1ccccc1 | 128 °C
CC(CC(=O)c1ccccc1)c1ccccc1 (stereo not drawn) | 70 °C
O=Cc1c(Cl)[nH]n(-c2ccccc2)c1=O | 167 °C
CCCCCCCCCCC#CC#CCCCCCCC(=O)O | 51 to 52 °C
Cc1cc(C)c(C(=O)P(=O)(c2ccccc2)c2ccccc2)c(C)c1 | 90 °C
BrCc1ccc2nonc2c1 | 77 to 80 °C
Cc1cc(C(C)(C)C)c(O)c(C(C)(C)C)c1 | 71 °C
C=CCOOC(C)(C)c1ccccc1 | 60 °C
CC(=O)Oc1cc(C(F)(F)F)ccc1C(=O)O | 121 °C
O=C(Nc1ccccc1)OC1C=CC=CCC1OC(=O)Nc1ccccc1 (stereo not drawn) | 179 to 180 °C
